What was measured:
Format in all cases: in vivo
[1] = test system: Avena fatua; experiment: Test Example 4: herbicidal effect by soil treatment (symbol I)
Outline: (§1)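 Seeds were sown in sterilized diluvial soil, covered with about 1.5 cm of soil, and the soil surface was sprayed with a water-diluted emulsion of the compound at a predetermined rate. Plants grew in a greenhouse at 25° C. to 30° C.; effects were scored visually 3 weeks after application.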

[2] = test system: Veronica persica; experiment: Test Example 5: herbicidal effect by foliage application, plastic box (symbol R); conditions: 320 g/ha, 3 weeks after application
Outline: (§2)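 Leaf-applied emulsion, water-diluted to a preset herbicide dose, on two-week-old seedlings raised in a 25° C. to 30° C. greenhouse; injury rated at 3 weeks using earlier criteria.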

[3] = test system: Galium spurium; experiment: Test Example 4: herbicidal effect by soil treatment (symbol Q)
Outline: as §1

[4] = test system: rapeseed; experiment: Test Example 4: effect on crop by soil treatment (symbol g); conditions: for g: rapeseed, effect grade on crop: 320 g/ha
Outline: (§3)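 Diluvial soil (sterilized) in boxes; seeds placed spot-wise alongside weed species; ~1.5 cm covering soil. Greenhouse, 25–30° C.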

[5] = test system: rice plant; experiment: Test Example 5: effect on crop by foliage application, plastic box (symbol b); conditions: 320 g/ha, 3 weeks after application
Outline: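 Plants were raised from seed in a greenhouse (25° C. to 30° C.) after sowing in a plastic box of sterilized diluvial soil.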

[6] = test system: wheat; experiment: Test Example 4: effect on crop by soil treatment (symbol e); conditions: for e: wheat, effect grade on crop: 320 g/ha
Outline: as §3

[7] = test system: Galium spurium; experiment: Test Example 5: herbicidal effect by foliage application, plastic box (symbol Q); conditions: 320 g/ha, 3 weeks after application
Outline: as §2

[8] = test system: Veronica persica; experiment: Test Example 4: herbicidal effect by soil treatment (symbol R)
Outline: as §1

[9] = test system: Apera spica-venti; experiment: Test Example 4: herbicidal effect by soil treatment (symbol L)
Outline: as §1

[10] = test system: Echinochloa crus-galli var. crus-galli; experiment: Test Example 3: herbicidal effect by foliage application, Wagner pot (symbol H); conditions: application herbicide amount 320 g/ha
Outline: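 The compound, formulated as an emulsion and diluted with water to a predetermined rate, is applied uniformly to leaves of two-week-old seedlings growing in submerged alluvial soil at 25–30 °C. Rice is included. Each plant is assessed 3 weeks later using defined criteria.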

[11] = test system: Stellaria media; experiment: Test Example 4: herbicidal effect by soil treatment (symbol P)
Outline: as §1

[12] = test system: Monochoria vaginalis; experiment: Test Example 2: herbicidal activity, application during weed generation in submerged conditions (symbol C); conditions: Table 23; application herbicide amount 320 g/ha; grade 0-5 by criteria of Test Example 1
Outline: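 Treatment timing was the one- to two-leaf stage, with diluted emulsifiable compound dropped onto the paddy water (depth 4 cm) over alluvial soil. All three species grew from a mixed sowing in a 25° C. to 30° C. greenhouse. Injury was judged by eye 3 weeks on.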

[13] = test system: Digitaria ciliaris; experiment: Test Example 5: herbicidal effect by foliage application, plastic box (symbol F); conditions: 320 g/ha, 3 weeks after application
Outline: as §2

[14] = application herbicide amount 320 g/ha

SMILES	I: Avena fatua, herbicidal effect grade [1, 14]	R: Veronica persica, herbicidal effect grade [2]	Q: Galium spurium, herbicidal effect grade [3, 14]	g: rapeseed, effect on crop grade [4, 14]	b: directly sowed rice plant, effect on crop grade [5]	e: wheat, effect on crop grade [6, 14]	Q: Galium spurium, herbicidal effect grade [7]	R: Veronica persica, herbicidal effect grade [8, 14]	L: Apera spica-venti, herbicidal effect grade [9, 14]	herbicidal effect on H (Echinochloa crus-galli var. crus-galli), grade 0-5 [10]	P: Stellaria media, herbicidal effect grade [11, 14]	Herbicidal effect grade, C: Monochoria vaginalis [12]	F: Digitaria ciliaris, herbicidal effect grade [13]	I: Avena fatua, herbicidal effect grade ([1]; 320 g/ha)	R: Veronica persica, herbicidal effect (criteria 0-5) [2]	Q: Galium spurium, herbicidal effect grade ([3]; 320 g/ha)	g: rapeseed, effect grade on crop [4]	b: directly sowed rice plant, effect on crop (criteria 0-5) [5]	e: wheat, effect grade on crop [6]	Q: Galium spurium, herbicidal effect (criteria 0-5) [7]	further results
CON=C(C)CC1CC(O)=C(c2c(C)cc(-c3ccc(OC)cc3)cc2C)C1=O (mixture of isomers) [6-017]	0 (Herbicidal ratio of 5% or lower (almost no effect))	3 (Herbicidal ratio of 40% or higher and lower than 70%)	0 (Herbicidal ratio of 5% or lower (almost no effect))	0 (Herbicidal ratio of 5% or lower (almost no effect))	5 (Herbicidal ratio of 90% or more (almost completely withered))	0 (Herbicidal ratio of 5% or lower (almost no effect))	0 (Herbicidal ratio of 5% or lower (almost no effect))	0 (Herbicidal ratio of 5% or lower (almost no effect))	5 (Herbicidal ratio of 90% or more (almost completely withered))	5 (Herbicidal ratio of 90% or more (almost completely withered))	0 (Herbicidal ratio of 5% or lower (almost no effect))	0 (Herbicidal ratio of 5% or lower (almost no effect))	5 (Herbicidal ratio of 90% or more (almost completely withered))								
CON=C(C)CC1CC(O)=C(c2c(C)cc(C#CCO)cc2C)C1=O (mixture of isomers) [6-025]	2 (Herbicidal ratio of 20% or higher and lower than 40%)	0 (Herbicidal ratio of 5% or lower (almost no effect))	0 (Herbicidal ratio of 5% or lower (almost no effect))	0 (Herbicidal ratio of 5% or lower (almost no effect))	5 (Herbicidal ratio of 90% or more (almost completely withered))	0 (Herbicidal ratio of 5% or lower (almost no effect))	0 (Herbicidal ratio of 5% or lower (almost no effect))	0 (Herbicidal ratio of 5% or lower (almost no effect))	4 (Herbicidal ratio of 70% or higher and lower than 90%)	5 (Herbicidal ratio of 90% or more (almost completely withered))	0 (Herbicidal ratio of 5% or lower (almost no effect))	0 (Herbicidal ratio of 5% or lower (almost no effect))	4 (Herbicidal ratio of 70% or higher and lower than 90%)								
CON=C(C)CC1CC(O)=C(c2c(C)cc(-c3ccc(Cl)nc3)cc2C)C1=O (mixture of isomers) [6-035]	3 (Herbicidal ratio of 40% or higher and lower than 70%)	4 (Herbicidal ratio of 70% or higher and lower than 90%)	0 (Herbicidal ratio of 5% or lower (almost no effect))	0 (Herbicidal ratio of 5% or lower (almost no effect))	5 (Herbicidal ratio of 90% or more (almost completely withered))	0 (Herbicidal ratio of 5% or lower (almost no effect))	4 (Herbicidal ratio of 70% or higher and lower than 90%)	3 (Herbicidal ratio of 40% or higher and lower than 70%)	5 (Herbicidal ratio of 90% or more (almost completely withered))	5 (Herbicidal ratio of 90% or more (almost completely withered))	3 (Herbicidal ratio of 40% or higher and lower than 70%)	0 (Herbicidal ratio of 5% or lower (almost no effect))	5 (Herbicidal ratio of 90% or more (almost completely withered))								
CON=C(C)CC1CC(OC(=O)c2ccccc2)=C(c2c(C)cc(C)cc2C)C1=O (stereo not drawn) [1-010]		4 (Herbicidal ratio of 70% or higher and lower than 90%)			5 (Herbicidal ratio of 90% or more (almost completely withered))		4 (Herbicidal ratio of 70% or higher and lower than 90%)			5 (Herbicidal ratio of 90% or more (almost completely withered))		2 (Herbicidal ratio of 20% or higher and lower than 40%)	5 (Herbicidal ratio of 90% or more (almost completely withered))								I (Avena fatua) herbicidal effect grade [1, 14]: 5 (Herbicidal ratio of 90% or more (almost completely withered)); Q (Galium spurium) herbicidal effect grade [3, 14]: 2 (Herbicidal ratio of 20% or higher and lower than 40%); g (rapeseed) effect on crop grade [4, 14]: 4 (Herbicidal ratio of 70% or higher and lower than 90%); e (wheat) effect on crop grade [6, 14]: 4 (Herbicidal ratio of 70% or higher and lower than 90%); R (Veronica persica) herbicidal effect grade [8, 14]: 4 (Herbicidal ratio of 70% or higher and lower than 90%); L (Apera spica-venti) herbicidal effect grade [9, 14]: 5 (Herbicidal ratio of 90% or more (almost completely withered)); P (Stellaria media) herbicidal effect grade [11, 14]: 4 (Herbicidal ratio of 70% or higher and lower than 90%)
CON=C(C)CC1CC(OS(=O)(=O)C2CC2)=C(c2c(C)cc(C)cc2C)C1=O (stereo not drawn) [1-143]										4 (Herbicidal ratio of 70% or higher and lower than 90%)		3 (Herbicidal ratio of 40% or higher and lower than 70%)		2 (Herbicidal ratio of 20% or higher and lower than 40%)	0 (Herbicidal ratio of 5% or lower (almost no effect))	0 (Herbicidal ratio of 5% or lower (almost no effect))	0 (Herbicidal ratio of 5% or lower (almost no effect))	2 (Herbicidal ratio of 20% or higher and lower than 40%)	2 (Herbicidal ratio of 20% or higher and lower than 40%)	0 (Herbicidal ratio of 5% or lower (almost no effect))	R: Veronica persica, herbicidal effect grade ([8]; 320 g/ha): 0 (Herbicidal ratio of 5% or lower (almost no effect)); L: Apera spica-venti, herbicidal effect grade ([9]; 320 g/ha): 5 (Herbicidal ratio of 90% or more (almost completely withered)); P: Stellaria media, herbicidal effect grade ([11]; 320 g/ha): 0 (Herbicidal ratio of 5% or lower (almost no effect)); F: Digitaria ciliaris, herbicidal effect (criteria 0-5) [13]: 5 (Herbicidal ratio of 90% or more (almost completely withered))
CON=C(C)CC1CC(OC(=O)OCc2ccccc2)=C(c2c(C)cc(C)cc2C)C1=O (stereo not drawn) [1-145]										5 (Herbicidal ratio of 90% or more (almost completely withered))		3 (Herbicidal ratio of 40% or higher and lower than 70%)		4 (Herbicidal ratio of 70% or higher and lower than 90%)	3 (Herbicidal ratio of 40% or higher and lower than 70%)	0 (Herbicidal ratio of 5% or lower (almost no effect))	4 (Herbicidal ratio of 70% or higher and lower than 90%)	5 (Herbicidal ratio of 90% or more (almost completely withered))	5 (Herbicidal ratio of 90% or more (almost completely withered))	2 (Herbicidal ratio of 20% or higher and lower than 40%)	R: Veronica persica, herbicidal effect grade ([8]; 320 g/ha): 3 (Herbicidal ratio of 40% or higher and lower than 70%); L: Apera spica-venti, herbicidal effect grade ([9]; 320 g/ha): 5 (Herbicidal ratio of 90% or more (almost completely withered)); P: Stellaria media, herbicidal effect grade ([11]; 320 g/ha): 3 (Herbicidal ratio of 40% or higher and lower than 70%); F: Digitaria ciliaris, herbicidal effect (criteria 0-5) [13]: 5 (Herbicidal ratio of 90% or more (almost completely withered))

— patent US11000033B2, “Ketone or oxime compound, and herbicide” (NISSAN CHEMICAL CORPORATION, priority 2014, dated 2021)
